Assay results as given in ChEMBL document CHEMBL5724914, “Linking interpersonal differences in gut microbiota composition and drug biotransformation activity” (2024).

Legend:
[1] = (§1) The drug is tested on Z-030 corresponding to mouse gut metagenome with ENA study accession number: PRJEB37062 and ENA sample accession number: ERS12561829 for biotransformation under anaerobic condition. The drug concentrations were measured over 9 timepoints collected between 0 and 24 hours of incubation by liquid-chromatography-coupled mass spectrometry (LC–MS); settings: 2 µM
[2] = as §1, with “Z-025” for “Z-030”, “rabbit” for “mouse”, “ERS12561824” for “ERS12561829”; settings: 2 µM
[3] = as §1, with “Z-023” for “Z-030”, “to” for “to mouse gut”, “ERS12561822” for “ERS12561829”; settings: 2 µM
[4] = as §1, with “Z-019” for “Z-030”, “rat” for “mouse”, “ERS12561818” for “ERS12561829”; settings: 2 µM
[5] = as §1, with “Z-018” for “Z-030”, “pig” for “mouse”, “ERS12561817” for “ERS12561829”; settings: 2 µM
[6] = as §1, with “Z-016” for “Z-030”, “ERS12561815” for “ERS12561829”; settings: 2 µM
[7] = as §1, with “Z-014” for “Z-030”, “rat” for “mouse”, “ERS12561814” for “ERS12561829”; settings: 2 µM
[8] = as §1, with “WLS-310” for “Z-030”, “human” for “mouse”, “ERS12561785” for “ERS12561829”; settings: 2 µM
[9] = as §1, with “WLS-086” for “Z-030”, “human” for “mouse”, “ERS12561752” for “ERS12561829”; settings: 2 µM
[10] = human gut metagenome, 24 h, 2 µM
[11] = human gut metagenome, 24 h, 2 µM; remark: listed apart in the source
[12] = human gut metagenome, 24 h, 2 µM; remark: listed apart in the source
[13] = human gut metagenome, 24 h, 2 µM; remark: listed apart in the source
[14] = human gut metagenome, 24 h, 2 µM; remark: listed apart in the source
[15] = human gut metagenome, 24 h, 2 µM; remark: listed apart in the source
[16] = human gut metagenome, 24 h, 2 µM; remark: listed apart in the source
[17] = human gut metagenome, 24 h, 2 µM; remark: listed apart in the source
[18] = human gut metagenome, 24 h, 2 µM; remark: listed apart in the source
[19] = human gut metagenome, 24 h, 2 µM; remark: listed apart in the source
[20] = human gut metagenome, 24 h, 2 µM; remark: listed apart in the source
Also: call rule not given here.

Row | Compound | Bacterial Biotransformation [1] | Bacterial Biotransformation [2] | Bacterial Biotransformation [3] | Bacterial Biotransformation [4] | Bacterial Biotransformation [5] | Bacterial Biotransformation [6] | Bacterial Biotransformation [7] | Bacterial Biotransformation [8] | Bacterial Biotransformation [9] | Bacterial Biotransformation [10] | Bacterial Biotransformation [11] | Bacterial Biotransformation [12] | Bacterial Biotransformation [13] | Bacterial Biotransformation [14] | Bacterial Biotransformation [15] | Bacterial Biotransformation [16] | Bacterial Biotransformation [17] | Bacterial Biotransformation [18] | Bacterial Biotransformation [19] | Bacterial Biotransformation [20]
1 | NS(=O)(=O)c1cc2c(cc1Cl)N=C(CSCc1ccccc1)NS2(=O)=O [BENZTHIAZIDE] | Compound NOT metabolized | Compound metabolized | Compound metabolized | Compound NOT metabolized | Compound NOT metabolized | Compound NOT metabolized | Compound NOT metabolized | Compound NOT metabolized | Compound NOT metabolized | Compound NOT metabolized | Compound NOT metabolized | Compound NOT metabolized | Compound NOT metabolized | Compound NOT metabolized | Compound NOT metabolized | Compound NOT metabolized | Compound NOT metabolized | Compound NOT metabolized | Compound NOT metabolized | Compound NOT metabolized
2 | CN1CCN(C(=O)O[C@H]2c3nccnc3C(=O)N2c2ccc(Cl)cn2)CC1 [ESZOPICLONE] | Compound NOT metabolized | Compound NOT metabolized | Compound NOT metabolized | Compound NOT metabolized | Compound NOT metabolized | Compound NOT metabolized | Compound NOT metabolized | Compound NOT metabolized | Compound NOT metabolized | Compound NOT metabolized | Compound NOT metabolized | Compound NOT metabolized | Compound NOT metabolized | Compound NOT metabolized | Compound NOT metabolized | Compound NOT metabolized | Compound NOT metabolized | Compound NOT metabolized | Compound NOT metabolized | Compound NOT metabolized
